Counter-ions that a name gives are not always drawn.
Test: in vitro
Settings: human, hek293t cells

Structure (SMILES)	viability at 48 h, 25 µM [%]
Cc1ccnc(-c2n[nH]c(C(C)NC(=O)C(C)Cl)n2)c1 (centres unmarked) [7-I10, 2-chloro-N-{1-[3-(4-methylpyridin-2-yl)-1H-1,2,4-triazol-5-yl]ethyl}propanamide]	71.1
COC1CCN(c2ccc(F)cc2CN(C)C(=O)C(C)Cl)CC1 (centres unmarked) [7-I11, 2-chloro-N-{[5-fluoro-2-(4-methoxypiperidin-1-yl)phenyl]methyl}-N-methylpropanamide]	94.9
CC(Cl)C(=O)N1CCN(c2nnnn2-c2ccccc2)CC1 (centres unmarked) [7-I12, 2-chloro-1-[4-(1-phenyl-1H-1,2,3,4-tetrazol-5-yl)piperazin-1-yl]propan-1-one]	74.2
CC(Cl)C(=O)NCc1ccon1 (centres unmarked) [7-I13, 2-chloro-N-[(1,2-oxazol-3-yl)methyl]propanamide]	94.7
CC(Cl)C(=O)NCc1noc2ccccc12 (centres unmarked) [7-I14, N-[(1,2-benzoxazol-3-yl)methyl]-2-chloropropanamide]	77.8
CC(Cl)C(=O)NC1CCN(S(C)(=O)=O)C1 (centres unmarked) [7-I15, 2-chloro-N-(1-methanesulfonylpyrrolidin-3-yl)propanamide]	94.9
CC(=O)N1CCC(NC(=O)C(C)Cl)c2ccc(F)cc2C1 (centres unmarked) [7-I16, N-(2-acetyl-8-fluoro-2,3,4,5-tetrahydro-1H-2-benzazepin-5-yl)-2-chloropropanamide]	92.3
CC(Cl)C(=O)NCc1ccn(CC(F)F)n1 (centres unmarked) [7-I17, 2-chloro-N-{[1-(2,2-difluoroethyl)-1H-pyrazol-3-yl]methyl}propanamide]	88.7
CC(Cl)C(=O)N1CCC(Oc2cnc3ccccc3n2)CC1 (centres unmarked) [7-I18, 2-chloro-1-[4-(quinoxalin-2-yloxy)piperidin-1-yl]propan-1-one]	68.7
CC(Cl)C(=O)N1CCc2ncccc2C1 (centres unmarked) [7-I19, 2-chloro-1-(5,6,7,8-tetrahydro-1,6-naphthyridin-6-yl)propan-1-one]	98.1
CC(Cl)C(=O)Nc1ccc(C(=O)N(C)C2CCCN(C)C2)cc1 (centres unmarked) [7-I20, 4-(2-chloropropanamido)-N-methyl-N-(1-methylpiperidin-3-yl)benzamide]	76.4
CC(Cl)C(=O)NCCc1ccnn1C (centres unmarked) [7-I21, 2-chloro-N-[2-(1-methyl-1H-pyrazol-5-yl)ethyl]propanamide]	92.3
CC(Cl)C(=O)N1CCN(Cc2ccnn2C)CC1 (centres unmarked) [7-I22, 2-chloro-1-{4-[(1-methyl-1H-pyrazol-5-yl)methyl]piperazin-1-yl}propan-1-one]	99.9
Cc1csc(C2(NC(=O)CCl)CCOCC2)n1 [7-J03, 2-chloro-N-[4-(4-methyl-1,3-thiazol-2-yl)oxan-4-yl]acetamide]	0.732
Cc1ccccc1C(NC(=O)CCl)c1ccccc1C [7-J04, N-[bis(2-methylphenyl)methyl]-2-chloroacetamide]	0.589
CC(Cl)C(=O)NCC(c1ccc(Cl)cc1)n1cccn1 (centres unmarked) [7-J05, 2-chloro-N-[2-(4-chlorophenyl)-2-(1H-pyrazol-1-yl)ethyl]propanamide]	100
O=C(CCl)NC1CN(c2ccc(C(F)(F)F)cc2)C1 [7-J06, 2-chloro-N-{1-[4-(trifluoromethyl)phenyl]azetidin-3-yl}acetamide]	0.892
CC(Cl)C(=O)N1CCN(CC(F)(F)C(F)F)CC1 (centres unmarked) [7-J07, 2-chloro-1-[4-(2,2,3,3-tetrafluoropropyl)piperazin-1-yl]propan-1-one]	96.1
O=C(CCl)NC1(c2nc(-c3ccccc3)c[nH]2)CCCC1 [7-J08, 2-chloro-N-[1-(4-phenyl-1H-imidazol-2-yl)cyclopentyl]acetamide hydrochloride]	0.673
CC(Cl)C(=O)NCCCc1c[nH]c2ccc(F)cc12 (centres unmarked) [7-J09, 2-chloro-N-[3-(5-fluoro-1H-indol-3-yl)propyl]propanamide]	96
O=C(CCl)NC1CCCN(Cc2ccccc2)C1=O (centres unmarked) [7-J10, N-(1-benzyl-2-oxopiperidin-3-yl)-2-chloroacetamide]	55.1
CC(Cl)C(=O)NCC1CCN(C)c2ccccc21 (centres unmarked) [7-J11, 2-chloro-N-[(1-methyl-1,2,3,4-tetrahydroquinolin-4-yl)methyl]propanamide]	79.9
CN(C)C(=O)C(CNC(=O)CCl)c1ccccc1 (centres unmarked) [7-J12, 3-(2-chloroacetamido)-N,N-dimethyl-2-phenylpropanamide]	1.26
Cc1ccc(NC(=O)C2(CNC(=O)C(C)Cl)CCCC2)cc1C (centres unmarked) [7-J13, 1-[(2-chloropropanamido)methyl]-N-(3,4-dimethylphenyl)cyclopentane-1-carboxamide]	108
O=C(CCl)N(CCCO)C1CCCc2ccccc21 (centres unmarked) [7-J14, 2-chloro-N-(3-hydroxypropyl)-N-(1,2,3,4-tetrahydronaphthalen-1-yl)acetamide]	0.693

Structure (SMILES)	viability at 48 h, 25 µM [%]
COc1ccc2nnc(CNC(=O)C(C)Cl)n2n1 (centres unmarked) [7-J15, 2-chloro-N-({6-methoxy-[1,2,4]triazolo[4,3-b]pyridazin-3-yl}methyl)propanamide]	90.2
CN(C(=O)CCl)C(c1ccc(Cl)cc1)C(F)(F)F (centres unmarked) [7-J16, 2-chloro-N-[1-(4-chlorophenyl)-2,2,2-trifluoroethyl]-N-methylacetamide]	0.718
Cc1cc2ncn(CC(NC(=O)C(C)Cl)C3CC3)c2cc1C (centres unmarked) [7-J17, 2-chloro-N-[1-cyclopropyl-2-(5,6-dimethyl-1H-1,3-benzodiazol-1-yl)ethyl]propanamide]	84.7
O=C(CCl)NCCc1cccc2c1Oc1ccccc1O2 [7-J18, 2-chloro-N-[2-(oxanthren-1-yl)ethyl]acetamide]	0.958
CC(Cl)C(=O)NCc1cc(C(F)(F)F)cs1 (centres unmarked) [7-J19, 2-chloro-N-{[4-(trifluoromethyl)thiophen-2-yl]methyl}propanamide]	97.1
O=C(CCl)N(CC1=CCCOC1)Cc1ccccc1 [7-J20, N-benzyl-2-chloro-N-[(5,6-dihydro-2H-pyran-3-yl)methyl]acetamide]	0.586
O=C(CCl)NCc1cc(O)ccc1Cl [7-J21, 2-chloro-N-[(2-chloro-5-hydroxyphenyl)methyl]acetamide]	0.249
CC(C)C(NC(=O)CCl)c1ccc(Cl)cc1F (centres unmarked) [7-J22, 2-chloro-N-[1-(4-chloro-2-fluorophenyl)-2-methylpropyl]acetamide]	0.584
CC(Cl)C(=O)NCc1ncn(Cc2cccc(F)c2)n1 (centres unmarked) [7-K03, 2-chloro-N-({1-[(3-fluorophenyl)methyl]-1H-1,2,4-triazol-3-yl}methyl)propanamide]	111
CC(Cl)C(=O)N1CCC(n2ncc3ccccc32)C1 (centres unmarked) [7-K04, 2-chloro-1-[3-(1H-indazol-1-yl)pyrrolidin-1-yl]propan-1-one]	92.4
CC(Cl)C(=O)NCc1csc(-c2ccco2)n1 (centres unmarked) [7-K05, 2-chloro-N-{[2-(furan-2-yl)-1,3-thiazol-4-yl]methyl}propanamide]	90.6
CC(Cl)C(=O)N1CCN(C(=O)C(F)(F)F)C2(CCCCC2)C1 (centres unmarked) [7-K06, 2-chloro-1-[1-(2,2,2-trifluoroacetyl)-1,4-diazaspiro[5.5]undecan-4-yl]propan-1-one]	74
CC(Cl)C(=O)N1CCc2sccc2C1c1cccs1 (centres unmarked) [7-K07, 2-chloro-1-[4-(thiophen-2-yl)-4H,5H,6H,7H-thieno[3,2-c]pyridin-5-yl]propan-1-one]	87.1
CC(Cl)C(=O)NC1CCN(c2nnnn2C)CC1 (centres unmarked) [7-K08, 2-chloro-N-[1-(1-methyl-1H-1,2,3,4-tetrazol-5-yl)piperidin-4-yl]propanamide]	82.1
CC(Cl)C(=O)N1Cc2cnn(C)c2C1 (centres unmarked) [7-K09, 2-chloro-1-{1-methyl-1H,4H,5H,6H-pyrrolo[3,4-c]pyrazol-5-yl}propan-1-one]	87
CC(Cl)C(=O)NC1CCc2nc(-c3cc(F)ccc3F)cn2C1 (centres unmarked) [7-K10, 2-chloro-N-[2-(2,5-difluorophenyl)-5H,6H,7H,8H-imidazo[1,2-a]pyridin-6-yl]propanamide]	77.5
CC(Cl)C(=O)N1CCN(C2=NS(=O)(=O)c3ccccc32)CC1 (centres unmarked) [7-K11, 3-[4-(2-chloropropanoyl)piperazin-1-yl]-1lambda6,2-benzothiazole-1,1-dione]	94.9
CC(Cl)C(=O)N1CCC(c2nc(C3CC3)no2)(C(F)(F)F)C1 (centres unmarked) [7-K12, 2-chloro-1-[3-(3-cyclopropyl-1,2,4-oxadiazol-5-yl)-3-(trifluoromethyl)pyrrolidin-1-yl]propan-1-one]	83.5
CC(Cl)C(=O)NCC1CCCCN1C(=O)C(F)(F)F (centres unmarked) [7-K13, 2-chloro-N-{[1-(2,2,2-trifluoroacetyl)piperidin-2-yl]methyl}propanamide]	83.8
CC(Cl)C(=O)NC1(C(=O)Nc2ccccc2)CC1 (centres unmarked) [7-K14, 1-(2-chloropropanamido)-N-phenylcyclopropane-1-carboxamide]	52
CC(Cl)C(=O)NCc1ccccc1S(=O)(=O)N1CCOCC1 (centres unmarked) [7-K15, 2-chloro-N-{[2-(morpholine-4-sulfonyl)phenyl]methyl}propanamide]	86
CC(Cl)C(=O)N(C)C[C@@H]1C[C@H](F)CN1c1ccnc(N(C)C)n1 (stereo partly drawn) [7-K16, 2-chloro-N-{[(2S,4S)-1-[2-(dimethylamino)pyrimidin-4-yl]-4-fluoropyrrolidin-2-yl]methyl}-N-methylpropanamide]	79.5
CC(Cl)C(=O)N1CCn2c(nn(CC(=O)N(C)C)c2=O)C1 (centres unmarked) [7-K17, 2-[7-(2-chloropropanoyl)-3-oxo-2H,3H,5H,6H,7H,8H-[1,2,4]triazolo[4,3-a]pyrazin-2-yl]-N,N-dimethylacetamide]	83.1
CC(Cl)C(=O)NCc1nnc(-c2ccncc2F)s1 (centres unmarked) [7-K18, 2-chloro-N-{[5-(3-fluoropyridin-4-yl)-1,3,4-thiadiazol-2-yl]methyl}propanamide]	78.4
CC(Cl)C(=O)NC1CCCN(c2cnn(C)c2)C1 (centres unmarked) [7-K19, 2-chloro-N-[1-(1-methyl-1H-pyrazol-4-yl)piperidin-3-yl]propanamide]	75.7
